Numbers after ± are expanded uncertainties.

One may read the mass density as mass per unit of volume.

For data set [1] the following is noted: 101.33 kPa, Liquid, Vibrating tube method.
A short description of data set [2]: activity coefficient (dimensionless); of the first substance listed, at infinite dilution; xn = mol fraction of the nth substance listed. Particulars: 101 kPa, Liquid, Chromatography, x1 = 0.

In the case of `CCn1cc[n+](C)c1.CS(=O)(=O)[O-]` [1-ethyl-3-methylimidazolium methanesulfonate], the mass density in data set [1] (298.15 K) was determined as 1239.96 ± 0.43 kg/m3; in data set [1] (308.15 K) it was 1233.22 ± 0.42 kg/m3; in data set [1] (318.15 K), 1226.51 ± 0.42 kg/m3; in data set [1] (328.15 K), 1219.84 ± 0.41 kg/m3; in data set [1] (338.15 K), 1213.2 ± 0.41 kg/m3; in data set [1] (348.15 K), 1206.63 ± 0.4 kg/m3. Moreover, in data set [1] (358.15 K), the mass density is 1200.08 ± 0.4 kg/m3.
With `CCCCCCCCC` [nonane] + CCn1cc[n+](C)c1.CS(=O)(=O)[O-], the activity coefficient in data set [2] (308.15 K) was 911 ± 63; in data set [2] (318.15 K), 779 ± 54; in data set [2] (328.15 K) it was 690 ± 48; in data set [2] (338.15 K), 607 ± 42; in data set [2] (348.15 K), 547 ± 38; in data set [2] (358.15 K), 507 ± 35.
Take `C=CCCCCCC` [oct-1-ene] + CCn1cc[n+](C)c1.CS(=O)(=O)[O-]: the activity coefficient was determined as 258 ± 18 in data set [2] (308.15 K); 228 ± 16 in data set [2] (318.15 K); 206 ± 14 in data set [2] (328.15 K); 187 ± 13 in data set [2] (338.15 K); 170 ± 12 in data set [2] (348.15 K).
As for `CCCCCCCC` [octane] + CCn1cc[n+](C)c1.CS(=O)(=O)[O-], the activity coefficient in data set [2] (308.15 K) worked out at 597 ± 41; in data set [2] (318.15 K), 505 ± 35; in data set [2] (328.15 K), 453 ± 31; in data set [2] (338.15 K), 388 ± 27; in data set [2] (348.15 K) it was 350 ± 24.
For `CCCC(C)=O` [pentan-2-one] + CCn1cc[n+](C)c1.CS(=O)(=O)[O-], the activity coefficient in data set [2] (308.15 K) is 7.83 ± 0.53; in data set [2] (318.15 K), 7.66 ± 0.52; in data set [2] (328.15 K) it was 7.52 ± 0.51; in data set [2] (338.15 K), 7.39 ± 0.5; in data set [2] (348.15 K), 7.26 ± 0.5; in data set [2] (358.15 K) it was 7.14 ± 0.49.
For the compound `CCC(=O)CC` [pentan-3-one] + CCn1cc[n+](C)c1.CS(=O)(=O)[O-], the activity coefficient in data set [2] (308.15 K) came to 8.08 ± 0.55; in data set [2] (318.15 K), 7.96 ± 0.54; in data set [2] (328.15 K), 7.86 ± 0.54; in data set [2] (338.15 K), 7.75 ± 0.53; in data set [2] (348.15 K), 7.63 ± 0.52; in data set [2] (358.15 K) it was 7.53 ± 0.51.
For the compound `CCCO` [propan-1-ol] + CCn1cc[n+](C)c1.CS(=O)(=O)[O-], the activity coefficient in data set [2] (308.15 K) stood at 0.761 ± 0.05; in data set [2] (318.15 K), 0.75 ± 0.05; in data set [2] (328.15 K), 0.736 ± 0.049; in data set [2] (338.15 K) it was 0.724 ± 0.048; in data set [2] (348.15 K), 0.716 ± 0.048; in data set [2] (358.15 K), 0.708 ± 0.047.
On to `c1ccncc1` [pyridine] + CCn1cc[n+](C)c1.CS(=O)(=O)[O-], for which the activity coefficient worked out at 1.56 ± 0.1 in data set [2] (308.15 K); 1.57 ± 0.1 in data set [2] (318.15 K); 1.59 ± 0.11 in data set [2] (328.15 K); 1.6 ± 0.1 in data set [2] (338.15 K); 1.62 ± 0.11 in data set [2] (348.15 K); 1.64 ± 0.11 in data set [2] (358.15 K).
In the case of `C=Cc1ccccc1` [styrene] + CCn1cc[n+](C)c1.CS(=O)(=O)[O-], the activity coefficient in data set [2] (308.15 K) was found to be 5.68 ± 0.39; in data set [2] (318.15 K), 5.71 ± 0.39; in data set [2] (328.15 K), 5.75 ± 0.39; in data set [2] (338.15 K), 5.79 ± 0.39; in data set [2] (348.15 K) it was 5.82 ± 0.4; in data set [2] (358.15 K) it was 5.85 ± 0.4.
Take `C1CCOC1` [tetrahydrofuran] + CCn1cc[n+](C)c1.CS(=O)(=O)[O-]: the activity coefficient in data set [2] (308.15 K) worked out at 5.42 ± 0.37; in data set [2] (318.15 K), 5.3 ± 0.36; in data set [2] (328.15 K), 5.2 ± 0.4; in data set [2] (338.15 K), 5.1 ± 0.35; in data set [2] (348.15 K), 5 ± 0.34; in data set [2] (358.15 K), 4.91 ± 0.33.
For the compound `c1ccsc1` [thiophene] + CCn1cc[n+](C)c1.CS(=O)(=O)[O-], the activity coefficient is 1.87 ± 0.13 in data set [2] (308.15 K); 1.92 ± 0.13 in data set [2] (318.15 K); 1.96 ± 0.13 in data set [2] (328.15 K); 2 ± 0.14 in data set [2] (338.15 K); 2.05 ± 0.14 in data set [2] (348.15 K); 2.09 ± 0.14 in data set [2] (358.15 K).
For the compound `Cc1ccccc1` [toluene] + CCn1cc[n+](C)c1.CS(=O)(=O)[O-], the activity coefficient in data set [2] (308.15 K) was determined as 9.13 ± 0.62; in data set [2] (318.15 K), 9.03 ± 0.62; in data set [2] (328.15 K), 8.88 ± 0.61; in data set [2] (338.15 K), 8.77 ± 0.6; in data set [2] (348.15 K), 8.65 ± 0.59; in data set [2] (358.15 K) it was 8.53 ± 0.58.
In the case of `O` [water] + CCn1cc[n+](C)c1.CS(=O)(=O)[O-], the activity coefficient in data set [2] (318.15 K) stood at 0.071 ± 0.03; in data set [2] (328.15 K), 0.075 ± 0.03; in data set [2] (338.15 K) it was 0.079 ± 0.03; in data set [2] (348.15 K), 0.083 ± 0.03; in data set [2] (358.15 K) it was 0.088 ± 0.03.

For the origin of these results see the NIST ThermoML archive (doi:10.1016/j.jct.2012.03.005).
